Experimental data reported in US8758816B2, “Compositions comprising azelastine and methods of use thereof” (priority 2004, dated 2014).

System: patients with seasonal allergic rhinitis (SAR)
Assay: MP 428 study: adverse events, Safety Population
Format: in vivo, human
Experimental: A two-week, randomized, double-blind study, which evaluated the effects of the co-administration of ASTELIN® (azelastine hydrochloride (HCl)) and FLONASE® (fluticasone propionate) compared to either product alone in patients with seasonal allergic rhinitis (SAR) was conducted during the 2006 Texas mountain cedar season. After a 5-day placebo lead-in period, 151 patients with moderate-to-severe allergic rhinitis symptoms were randomized to either: (1) (49 total patients) ASTELIN® (azelastine hydrochloride (HCl)) plus placebo saline nasal spray 2 sprays per nostril, 15 minutes apart, twice daily (AM & PM); (2) (50 total patients) FLONASE® (fluticasone propionate) plus placebo saline nasal spray, 2 sprays per nostril, 15 minutes apart, once daily (AM) and two sessions of placebo saline nasal spray, 2 sprays per nostril, 15 minutes apart (PM); or (3) (52 total patients) the co-administration of ASTELIN® (azelastine hydrochloride (HCl)) 2 sprays per nostril plus FLONASE® (fluticasone propionate) 2 sprays per nostril (AM), 15 minutes apart, and ASTELIN® (azelastine hydrochloride (HCl)) 2 sprays per nostril plus placebo saline nasal spray, 15 minutes apart, (PM) for a 2-week double-blind treatment period.
The most common adverse events (AEs) were bitter taste (8.2% in ASTELIN® (azelastine hydrochloride (HCl)) group, 2.0% in FLONASE® (fluticasone propionate) group, 13.5% in co-administration group) and headache (4.1% in ASTELIN® (azelastine hydrochloride (HCl)) group, 4.0% in FLONASE® (fluticasone propionate) group, 5.8% in co-administration group). No other AE was reported by more than one patient in any treatment group. There were no discontinuations due to AEs.

[1] = Possibly related to study drug, Safety Population
[2] = Probably related to study drug, Safety Population
[3] = Total (possibly or probably related), Safety Population

CCC(=O)O[C@]1(C(=O)SCF)[C@H](C)C[C@H]2[C@@H]3C[C@H](F)C4=CC(=O)C=C[C@]4(C)[C@@]3(F)[C@@H](O)C[C@@]21C [Fluticasone, fluticasone propionate]
4 (8.0) Number (%): Number (%) Patients With Any AEs: All Treatment-Related AEs (Safety Population)
5: Number of Adverse Events Reported: All Treatment-Emergent AEs (Safety Population)
3 (6.0) Number (%): Number (%) Patients With Treatment-Related AEs by Maximum Severity (Mild)
4: Number of Adverse Events Reported: All Treatment-Related AEs (Safety Population)
5 (10.0) No. of Patients (%): Treatment-Emergent AE: Any Adverse Event (Total)
1 (2.0) Number (%): Number (%) Patients With Treatment-Related AEs by Maximum Severity (Moderate)
1 (2.0) No. of Patients (%): Treatment-Related Adverse Events: DRY MOUTH [1] | Treatment-Related Adverse Events: DYSGEUSIA [1] | Treatment-Related Adverse Events: HEADACHE [1] | Treatment-Related Adverse Events: NERVOUS SYSTEM DISORDERS, Any Preferred Term [1] | Treatment-Related Adverse Events: STOMACH DISCOMFORT [1] | Treatment-Emergent AE: DRY MOUTH (Total) | Treatment-Emergent AE: DYSGEUSIA (Total) | Treatment-Emergent AE: STOMACH DISCOMFORT (Total) | Treatment-Related Adverse Events: DRY MOUTH [3] | Treatment-Related Adverse Events: DYSGEUSIA [3] | Treatment-Related Adverse Events: HEADACHE [3] | Treatment-Related Adverse Events: NERVOUS SYSTEM DISORDERS, Any Preferred Term [3] | Treatment-Related Adverse Events: STOMACH DISCOMFORT [3] | Treatment-Emergent AE: DRY MOUTH (max severity Mild) | Treatment-Emergent AE: DYSGEUSIA (max severity Mild)
0 (0.0) No. of Patients (%): Treatment-Related Adverse Events: EPISTAXIS [1] | Treatment-Related Adverse Events: NASAL DISCOMFORT [1] | Treatment-Related Adverse Events: RESPIRATORY, THORACIC AND MEDIASTINAL DISORDERS, Any Preferred Term [1] | Treatment-Related Adverse Events: Any Adverse Event [2] | Treatment-Related Adverse Events: DRY MOUTH [2] | Treatment-Related Adverse Events: DYSGEUSIA [2] | Treatment-Related Adverse Events: EPISTAXIS [2] | Treatment-Related Adverse Events: GASTROINTESTINAL DISORDERS, Any Preferred Term [2] | Treatment-Related Adverse Events: HEADACHE [2] | Treatment-Related Adverse Events: NASAL DISCOMFORT [2] | Treatment-Related Adverse Events: NERVOUS SYSTEM DISORDERS, Any Preferred Term [2] | Treatment-Related Adverse Events: RESPIRATORY, THORACIC AND MEDIASTINAL DISORDERS, Any Preferred Term [2] | Treatment-Related Adverse Events: STOMACH DISCOMFORT [2] | Treatment-Emergent AE: EAR AND LABYRINTH DISORDERS, Any Preferred Term (Total) | Treatment-Emergent AE: EAR PAIN (Total) | Treatment-Emergent AE: EPISTAXIS (Total) | Treatment-Emergent AE: MUSCULOSKELETAL AND CONNECTIVE TISSUE DISORDERS, Any Preferred Term (Total) | Treatment-Emergent AE: MYALGIA (Total) | Treatment-Emergent AE: NASAL DISCOMFORT (Total) | Treatment-Emergent AE: NECK PAIN (Total) | Treatment-Emergent AE: PHARYNGOLARYNGEAL PAIN (Total) | Treatment-Emergent AE: RESPIRATORY, THORACIC AND MEDIASTINAL DISORDERS, Any Preferred Term (Total) | Treatment-Related Adverse Events: EPISTAXIS [3] | Treatment-Related Adverse Events: NASAL DISCOMFORT [3] | Treatment-Related Adverse Events: RESPIRATORY, THORACIC AND MEDIASTINAL DISORDERS, Any Preferred Term [3] | Treatment-Emergent AE: EAR AND LABYRINTH DISORDERS, Any Preferred Term (max severity Mild) | Treatment-Emergent AE: EAR PAIN (max severity Mild) | Treatment-Emergent AE: EPISTAXIS (max severity Mild) | Treatment-Emergent AE: MUSCULOSKELETAL AND CONNECTIVE TISSUE DISORDERS, Any Preferred Term (max severity Mild)
3 (6.0) No. of Patients (%): Treatment-Related Adverse Events: GASTROINTESTINAL DISORDERS, Any Preferred Term [1] | Treatment-Emergent AE: GASTROINTESTINAL DISORDERS, Any Preferred Term (Total) | Treatment-Related Adverse Events: GASTROINTESTINAL DISORDERS, Any Preferred Term [3]
0 (0.0) Number (%): Number (%) of Deaths (Safety Population) | Number (%) of Patients With Serious AEs (Safety Population) | Number (%) Patients With Treatment-Related AEs by Maximum Severity (Severe)
0 (0.0) N (%): Primary Reason for Discontinuation From Study: Adverse Event (All Randomized Patients)
2 (4.0) No. of Patients (%): Treatment-Emergent AE: HEADACHE (Total) | Treatment-Emergent AE: NERVOUS SYSTEM DISORDERS, Any Preferred Term (Total) | Treatment-Emergent AE: GASTROINTESTINAL DISORDERS, Any Preferred Term (max severity Mild) | Treatment-Emergent AE: HEADACHE (max severity Mild)
4 (8.0) No. of Patients (%): Treatment-Related Adverse Events: Any Adverse Event [1] | Treatment-Related Adverse Events: Any Adverse Event [3] | Treatment-Emergent AE: Any Adverse Event (max severity Mild)
